Earlier results, collected in US20220370529A1, “CANNABIS COMPOSITIONS AND RELATED METHODS” (Access Business Group International LLC, priority 2021, published 2022).

What was measured:
[1] = system: human keratinocytes (HaCaT cells); details: of 26 genes upregulated by TNF-α treatment
[2] = system: human dermal fibroblast (HDF); details: HDF cells
[3] = with rapid metabolism or redistribution

C=C(C)[C@@H]1CCC(C)=C[C@H]1c1c(O)cc(CCCCC)cc1O [CBD, cannabidiol]
inflammatory related genes downregulated [1]: 15 genes | partition coefficient (log P): ~6.3 | inhibitory effects on genes playing a role in inflammation and matrix remodeling, including IL-6 and MMP-9 ([2]; TNF-α treatment): did not exhibit any inhibitory effects | wound healing genes downregulated ([2]; of 16 genes upregulated by TNF-α treatment): 11 genes

CC1=CC[C@H]2C[C@@H]1C2(C)C [α-Pinene, α-pinene]
human pulmonary uptake [3]: ~60%
